Measured values taken from patent publication US8871735B2, “Methods and compositions for providing cardiac protection” (University of Medicine and Dentistry of New Jersey, priority 2008, dated 2014).
Entries after “also recorded” stand apart in the source; their conditions may differ.

Experiments:
Water solubility = format: physicochemical
[1] = test system: C57BL/6 mice, CAO 30 min / CAR; assay: Mouse ischemia and reperfusion model; format: in vivo
Description: Mice were divided into three different groups. Group I was administered AC5 inhibitor chronically for three weeks prior to CAO for 30 minutes followed by CAR for 24 hours. Group II was administered the AC5 inhibitor by i.v. infusion for 5 minutes immediately prior to CAO for 30 minutes followed by CAR for 24 hours. Group III was administered the AC5 inhibitor by i.v. infusion for 5 minutes immediately following CAO for 30 minutes and during CAR for 24 hours. Vehicle controls were included for all three treatment groups.
3-4 month old male C57BL/6 mice purchased from Jackson Laboratory were anesthetized by an injection of 2% 2,2,2-tribromomethanol (0.66 mg/g i.p.; Aldrich Chemical, St. Louis, Mo.). The mice were then orally intubated and mechanically ventilated. The heart was accessed via a thoracotomy at the fourth intercostals space and 7-0 silk suture passed under the left anterior descending coronary artery (LAD) at the point where it emerged from under the left atrial flap. Myocardial ischemia was achieved by occluding the LAD against a 22-gauge J-shaped stainless steel probe and verified by visually noting the regional akinesis and blanching of the left ventrical. The chest was closed in layers, with the long end of the probe remaining outside the chest wall, allowing the animal to be removed from the ventilator. After 30 min. of ischemia, reperfusion was initiated by carefully pulling the probe out form the ligature and then removing it from the chest cavity. Following the surgical procedure, the mouse was allowed to recover on a warmed surface, with supplemental oxygen delivered from a nose cone. I/R were verified by three lead electrocardiograms, which were obtained preoperatively, at the end of the ischemic interval and immediately after the initiation of reperfusion. Mice fully recovered from the surgical procedure were returned to standard animal housing conditions. The mice were under either 24 hrs of reperfusion followed by sacrifice and dual staining of the heart with TTC and Alcian Blue or kept for 4 weeks to study the heart failure progression. For the long term study post ischemia and reperfusion, the animals underwent echocardiography recording at 4 days, 2 weeks and 4 weeks after reperfusion.

[2] = test system: C57Bl/6 mice motor function; assay: Rotarod performance test and pole test; format: in vivo, mouse; conditions: mouse
Description: In C57Bl/6 mice, Ara-Ade was chronically infused with an osmotic mini-pump at the indicated doses for 5 days. a) Each mouse was placed on a rod subjected to evaluate Rotarod performance. Mice were left for 1 min on the rod for habituation. The rod rotated gradually increasing from 4 to 40 rpm over the course of 5 min, and the time that mice could stay without failing was recorded. Five trials were conducted for each individual 10-25 min apart. As a positive control, 1-methyl 4-phenyl 1,2,3,6-tetrahydropyridine (MPTP) was intraperitoneally injected for the indicated dose for 5 days. *, p<0.01 relative to vehicle. #, p<0.05 relative to vehicle. n=6-7. b) To evaluate bradykinesia, a pole test was performed. Mice were placed head upward on the top of a rough surfaced pole that was wrapped with gauze to prevent slipping. The time until the mouse turned completely downward (open bars, TTURN) and the time until it climbed down to the floor (closed bars, TLA) were measured.
Four days after the implantation, Rotarod performance test and pole test were examined as previously described. For MPTP injection (1-methyl 4-phenyl 1,2,3,6-tetrahydropyridine), mice were injected intraperitoneally (i.p.) with 0.1 mL of PBS or MPTP dissolved in PBS at 24-hour intervals for 5 days. The daily dose of MPTP was 30 mg/kg. […]

[3] = test system: mice, chronic ISO infusion; assay: Treadmill exercise tolerance after chronic ISO; format: in vivo, mouse
Description: Treadmill exercise tolerance was performed as previously described. One week after pump implantation, pumps were removed under anesthesia. The next day after removal, mice were placed on a custom-built four-lane treadmill with an infrared detection system above the shock stimulus at a starting speed of 2 m/min. Every two minutes, the speed was increased by 4 m/min for 16 min or until the mouse could no longer run.

mice = assay: Basal cardiac function (echocardiography) under chronic drug infusion alone; format: in vivo, mouse; conditions: chronic infusion of drug alone (3 days to 1 week)
Excerpt: ISO with or without AC5 inhibitors were chronically infused with osmotic mini-pump implanted subcutaneously at indicated doses for 1 week in c57Bl/6 mice. Mice were then subjected to echocardiography (a) and the hearts were removed and subjected to pathological examinations such as myocardial apoptosis (b) and fibrosis (c). n=4-8.
In C57Bl/6 mice, ISO with or without AC5 inhibitors or metoprolol were chronically infused with an osmotic mini-pump at the indicated doses for 1 week. Mice were then subjected to echocardiography (a) and heart tissue were subjected to a myocardial apoptosis assay (b). *, p<0.01 vs vehicle. #, p<0.05 vs vehicle. .dagger., p<0.01 vs ISO. .dagger-dbl., p<0.05 vs ISO. n=4-15. […] Comparisons between multiple groups were made using ANOVA with post-hoc tests.
Mice were anesthetized with 2.5% tribromoethanol (0.010 to 0.015 mL per gram of body weight) injected intraperitoneally, and echocardiography was performed with ultrasonography (ACUSON Sequoia C256, Siemens Medical Solutions, Malvern, Pa.). For acute injection of isoproterenol, forskolin and milrinon, a PE-10 catheter was inserted into the right jugular vein, and drugs were injected at the rate of 1 μl/s. cAMP accumulation assay in H9C2 cells, a cardiac myoblast cell line, was examined as previously described. […]

[4] = 30 min CAO, 24 hr CAR, vehicle 36%

SMILES: Nc1ncnc2c1ncn2[C@@H]1O[C@H](CO)[C@@H](O)[C@@H]1O [Ara-Ade, 9-β-D-arabinofuranosyladenine]
- water solubility (Water solubility): poorly water-soluble
- arterial pressure and heart rate [1]: did not reduce arterial pressure and reflexly increase heart rate
- infarct size, drug administered before CAO or CAR [1, 4]: 21%
- infarct size, drug delivered at CAR [1, 4]: 16%
- development of heart failure after ischemia and reperfusion ([1]; i.v. infusion after CAO, during or after reperfusion): prevented development of heart failure
- BBB-permeability (concluded from motor tests) [2]: little BBB-permeability
- maximum velocity in the treadmill test [3]: rescued ISO-induced decrease in the maximum velocity
- basal LVEF (mice): did not change LVEF; also recorded: did not affect basal LVEF
